# In patent publication US6559160B1, “Compounds and methods for modulating cxcr3 function” (Chemocentryx, Inc., priority 1999, dated 2003):
# Test system: not given
# Experiment: not given
# Conditions: not given
row,Structure (SMILES),melting point
1,CCCCCCCCCC(=O)N(CCN(C)C)C(C)c1nc2ccc(OC)cc2c(=O)n1-c1ccc(OC)cc1 (stereo not shown) [Compound 4.1],124.2 °C
2,CCCCCCCCCC(=O)N(CCN(C)C)C(C)c1nc2ccc(C)cc2c(=O)n1-c1ccc(F)cc1 (stereo not shown) [Compound 4.4],121 °C
3,CCCCCCCCCC(=O)N(CCN(C)C)C(C)c1nc2ccc(Cl)cc2c(=O)n1-c1ccc(F)cc1 (stereo not shown) [Compound 4.5],122.9 °C
4,CCCCCCCCCC(=O)N(CCN(C)C)C(C)c1nc2c(OC)c(OC)c(OC)cc2c(=O)n1-c1ccc(F)cc1 (stereo not shown) [Compound 4.7],106.7 °C

# Target: T1, CXCR3 (Homo sapiens, UniProt P49682)
# T1 construct: CXCR3-expressing cells were prepared according to standard methods and used in most assays
# T1 sequence (P49682 1-368): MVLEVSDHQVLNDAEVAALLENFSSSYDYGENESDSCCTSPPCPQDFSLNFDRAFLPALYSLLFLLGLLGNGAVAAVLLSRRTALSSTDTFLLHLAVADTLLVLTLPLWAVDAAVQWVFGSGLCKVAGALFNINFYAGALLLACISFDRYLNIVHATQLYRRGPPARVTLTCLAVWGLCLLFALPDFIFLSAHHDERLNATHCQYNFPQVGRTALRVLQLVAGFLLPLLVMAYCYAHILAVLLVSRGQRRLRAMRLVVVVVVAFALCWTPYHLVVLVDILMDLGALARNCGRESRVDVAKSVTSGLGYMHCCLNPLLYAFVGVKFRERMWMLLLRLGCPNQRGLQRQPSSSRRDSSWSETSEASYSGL
# Experiment: CXCR3 binding assay: inhibition of 125I-IP-10 binding to CXCR3-expressing cells
# Conditions: concentration required to reduce binding of labeled IP-10 to the receptor by 50%, approx. 3 hours at 4° C.
# Protocol: Source plates of chemical libraries were obtained from commercial vendors and contained individual compounds at 5 mg/mL in DMSO, or in some instances, at 1 mg/mL. From these, multiple compound plates containing 10 compounds in each well were made, and these were diluted in 20% DMSO to a concentration of 50 μg/mL (10 μg/mL for those beginning at 1 mg/mL). An aliquot of 20 μL of each mixture was put into the test plates, which were stored frozen until use.
# CXCR3-expressing cells were prepared according to standard methods and used in most assays. The cells were cultured in IMDM-5% FBS, and harvested when the concentration was between 0.5-1.0×10^6 cells/mL. The cells were centrifuged and resuspended in assay buffer (20 mM HEPES, 80 mM NaCl, 1 mM CaCl2, 5 mM MgCl2, and with 0.2% bovine serum albumin, pH 7.1) to a concentration of 5.6×10^6 cells/mL. Using a Multi-Probe automated system, 0.09 mL of cells was added to each well of the assay test plates containing the compounds, followed by 0.09 mL of ^125I-Ip-10 (from New England Nuclear) diluted in assay buffer (final concentration ˜25-100 pM, with ˜50,000 cpm per well). The final concentration of the compounds was 1-5 μg/mL each. The plates were sealed and incubated for approximately 3 hours at 4° C. on a shaker platform. (In some experiments radiolabeled MIG was used.) The assay plates were harvested using Packard filter plates, pre-soaked in PEI solution, on the vacuum harvest apparatus. Scintillation fluid (35 μL) was added to each of the wells, the plates were sealed and counted in a Top Count scintillation counter. Control wells contained either diluent only (for total counts) or excess IP-10 (1 μg/mL, for non-specific binding) and were used to calculate the percent of total inhibition for each set of compounds. Further tests on individual compounds were carried out in the same manner. IC50 values are those concentrations required to reduce the binding of labeled IP-10 to the receptor by 50%.
# The binding of IP-10 or MIG to CXCR3 was first optimized by testing various pH and salt concentrations for their effect in a homologous competition assay. Maximum binding of radiolabeled MIG takes place under low salt (80 mM) conditions, as compared to normal salt (140 mM), while there is no difference between pH 7.1 and 7.4.
row,Structure (SMILES),IC50
1,CCCCCC(=O)N(CCN(C)C)C(C)c1nc2ccccc2c(=O)n1-c1ccc(F)cc1 (stereo not shown) [Compound 1.1],> 5000 nM
2,CCCCCCC(=O)N(CCN(C)C)C(C)c1nc2ccccc2c(=O)n1-c1ccc(F)cc1 (stereo not shown) [Compound 1.2],> 5000 nM
3,CCCCCCCC(=O)N(CCN(C)C)C(C)c1nc2ccccc2c(=O)n1-c1ccc(OC)cc1 (stereo not shown) [Compound 1.5],800 to 5000 nM
4,CCCCCCCC(=O)N(CCN(C)C)C(C)c1nc2ccccc2c(=O)n1-c1ccc(F)cc1 (stereo not shown) [Compound 1.6],800 to 5000 nM
5,CCCCCCCCC(=O)N(CCN(C)C)C(C)c1nc2ccccc2c(=O)n1-c1ccc(C)cc1 (stereo not shown) [Compound 1.7],> 5000 nM
6,CCCCCCCCCC(=O)N(CCN(C)C)C(C)c1nc2ccccc2c(=O)n1-c1ccccc1 (stereo not shown) [Compound 1.12],> 5000 nM
7,CCCCCCCCCCCC(=O)N(CCN(C)C)C(C)c1nc2ccccc2c(=O)n1-c1ccc(Cl)cc1 (stereo not shown) [Compound 1.13],800 to 5000 nM

# Other lines, results leading:
row,IC50,Structure (SMILES)
1,800 to 5000 nM,CCCCCCC(=O)N(CCN(C)C)C(C)c1nc2ccccc2c(=O)n1-c1ccc(OC)cc1 (stereo not shown) [Compound 1.3]
2,800 to 5000 nM,CCCCCCCC(=O)N(CCN(C)C)C(C)c1nc2ccccc2c(=O)n1-c1ccc(Br)cc1 (stereo not shown) [Compound 1.4]
3,≤ 800 nM,CCCCCCCCC(=O)N(CCN(C)C)C(C)c1nc2ccccc2c(=O)n1-c1ccc(OC)cc1 (stereo not shown) [Compound 1.9]
4,≤ 800 nM,CCCCCCCCC(=O)N(CCN(C)C)C(C)c1nc2ccccc2c(=O)n1-c1ccc(Cl)cc1 (stereo not shown) [Compound 1.10]
5,≤ 800 nM,CCCCCCCCCC(=O)N(CCN(C)C)C(C)c1nc2ccccc2c(=O)n1-c1ccc(F)cc1 (stereo not shown) [Compound 1.11]
6,≤ 800 nM,CCCCCCCCCCCCCC(=O)N(CCN(C)C)C(C)c1nc2ccccc2c(=O)n1-c1ccc(F)cc1 (stereo not shown) [Compound 1.14]
7,≤ 800 nM,CCCCCCCCCCCCCC(=O)N(CCN(C)C)C(C)c1nc2ccccc2c(=O)n1-c1ccc(OC)cc1 (stereo not shown) [Compound 1.15]

# Test system: 5 other chemokine receptors on activated lymphocytes
# Experiment: Signalling (calcium mobilization) by other chemokines on activated lymphocytes
# Format: cell-based, human
# Conditions: not given
# Protocol: Calcium mobilization assays were performed by labeling human peripheral blood lymphocytes (cultured in 10 ng/mL IL-2 for at least 12 days) with INDO-1 dye (45 min at room temperature), washing with PBS, and resuspending into flux buffer (HBSS with 1% fetal bovine serum). For each test, 1×10^6 cells were incubated at 37° C. in the cuvette of a PTI spectrometer, and the ratio of 400/490 nm emission was plotted over time (typically 2-3 minutes), with compounds added at 5 seconds, followed by IP-10 or other chemokines.
row,Structure (SMILES),interference with signalling by other chemokines
1,CCCCCCCCCC(=O)N(CCN(C)C)C(C)c1nc2ccccc2c(=O)n1-c1ccc(F)cc1 (stereo not shown) [Compound 1.11],did not interfere with signalling by those chemokines
